Experimental data reported in patent US20240390487A1, “TLR AGONISTS FOR REDUCING ACTIVATION-INDUCED PD-1 EXPRESSION ON T CELLS AND METHODS OF USE” (WISCONSIN ALUMNI RESEARCH FOUNDATION, priority 2016, published 2024).

Assays:
[1] = system: OT-1 transgenic splenocytes; assay: In vitro stimulation of OT-1 splenocytes with peptide antigen in the presence of TLR agonists, surface markers by flow cytometry; assay type: cell-based, mice; set-up: key to 4-1BB / PD-1 / LAG3 / CD160 / CD244.2 / BTLA / VISTA: “+” means increase; “−” means decrease; “=” means no change; “=/+” or “=/−” means the change is there but not significant; “=/+” or “=/−” means the change is there but not significant; details: for 4-1BB / LAG3 / PD-1: OT-1 splenocytes, high affinity antigen plus TLR agonist, versus antigen alone
Description: T cell activation was measured by the levels of marker 4-1BB (a/k/a CD137, a member of the TNF receptor superfamily). The level of PD-1 expression was also assessed in these cells (FIG. 1B).
There was no difference in LAG3 expression between the control cells and cells treated with any of the assayed TLR agonists.
OT-1 transgenic splenocytes were treated with high affinity antigen in combination with Pam3CSK4 (TLR1 and 2 agonist), Gardiquimod (TLR7 agonist) or no TLR agonist and the levels of different checkpoint markers or T cell stimulation (measured by 4-1BB, FIG. 5) were assayed. The checkpoint markers BTLA (FIG. 6), VISTA (FIG. 7), CD160 (FIG. 8) and CD244.2 (FIG. 9) were assayed.
TLR stimulation at the time of T-cell activation in vitro affects expression of PD-1. Given that CpG-rich DNA is a TLR9 agonist and Lm is a TLR2 agonist, we questioned whether TLR stimulation with different ligands could similarly affect expression of different T-cell checkpoint inhibitors. […] OT-1 splenocytes were stimulated in vitro with peptides of different affinity for MHC class I (high-affinity SIINFEKL peptide (SEQ ID NO:1, OVA), moderate-affinity SIINTEKL peptide (SEQ ID NO:2, FT), or low-affinity SIINFEKP peptide (SEQ ID NO:7, LP)), alone or in the presence of different TLR ligands (TLR 1/2 (Pam3CSK4), TLR 3 (Poly I:C), TLR 4 (MPLAs), TLR 7 (Gardiquimod), TLR 7/8 (R848), or TLR 9 (ODN1826)). […] Similarly, LAG-3 expression increased by day 3, but was not affected by the presence of different TLR ligands. […] This reduction in PD-1 expression was observed most with the high-affinity SIINFEKL (SEQ ID NO:1) epitope, but also observed following activation with lower affinity epitopes. Given these findings, we evaluated expression of multiple other T-cell checkpoint molecules following T-cell activation in the presence of TLR ligands. […] Cytotoxic T-lymphocyte-associated protein 4 (CTLA-4) expression, however, was increased in the presence of TLR1/2 agonist. Similar results were found activating OT-1 cells with the lower affinity FT (SIINTEKL peptide (SEQ ID NO:2)), LP (SIINFEKP peptide (SEQ ID NO:7), or LY (SIINFEKY, SEQ ID NO:8) epitopes (FIG. 19).
In vitro T-cell stimulation: Spleens were collected from OT-1 mice, processed through a mesh screen, and splenocytes were isolated by centrifugation after red blood cell osmotic lysis with ammonium chloride/[…] lysis buffer (0.15 M NH4Cl, 10 mM KHCO3, 0.1 mM EDTA). Splenocytes were cultured at 2×10^6/mL in RPMI 1640 medium supplemented with L-glutamine, 10% fetal calf serum (FCS), 200 U/mL penicillin/streptomycin, 1% sodium pyruvate, 1% HEPES, 50 μM β-MeOH, and 2 μg/mL of the designated peptide. TLR agonists were all purchased from InvivoGen (San Diego, CA) and added one hour before peptides at the following optimal concentrations based on preliminary studies and previously reported results: 300 ng/ml Pam3CSK4, 10 μg/mL Poly(I:C) HMW, 10 μg/ml MPLAs, 3 μg/ml Gardiquimod, 10 μg/ml R848, 5 μM ODN 1826. At the time points indicated, cells were stained, fixed for 15 min at 4° C. in cytofix (BD Biosciences (BD), San Jose, CA; 554655), and frozen in FCS+10% DMSO. After all time points were collected, cells from all times were thawed, rinsed and resuspended in PBS+3% FCS+1 mM EDTA and analyzed by flow cytometry. Cells were stained for 30 min at 4° C. in a 1:4 dilution of brilliant stain buffer (BD 563794) in PBS+3% FCS+1 mM EDTA. In order to assess co-stimulation, blocking antibodies for CD80 (0.6 μg/mL), CD86 (0.25 μg/mL) or OX40L (0.6 μg/mL) were added 1 hour prior to antigen.

OT-1 CD8+ T cells = assay: Adoptive transfer of OT-1 T cells and immunization of C57BL/6 mice, marker expression on splenic OT-1 T cells; assay type: in vivo
Source text: Vaccine type can affect expression of T-cell checkpoint molecules on activated CD8+ T cells: This Example used an ovalbumin vaccination model. OT-1 cells were adoptively transferred to naïve C57BL/6 mice. The day after transfer, mice were immunized once with (a) DNA encoding ovalbumin, (b) Listeria monocytogenes (Lm) encoding ovalbumin, (c) OVA257-264 peptide (SIINFEKL (SEQ ID NO:1)), (d) SIINFEKL peptide (SEQ ID NO:1) with DNA vector, (e) DNA vector alone, (f) Lm encoding control vector with no antigen, or (g) NS (non-specific) peptide. Splenocytes were collected the day after vaccination for expression of cell surface markers on antigen-specific OT-1 cells. […] LAG-3 expression was not reduced in the presence of Lm co-administered with peptide.
TLR stimulation at the time of T-cell activation reduced expression of PD-1 in vivo: To determine whether TLR stimulation at the time of T-cell activation with vaccination elicited a similar reduction in PD-1 in vivo, OT-1 cells were adoptively transferred to naïve C57BL/6 mice as above, and immunized once with OVA or FT peptide (or non-specific peptide) one day later in the presence or absence of a TLR 1/2, TLR7, or TLR9 ligand. Splenocytes were collected from groups up to 14 days after immunization and evaluated for expression of 4-1BB, PD-1 and LAG-3.
Adoptive transfer and immunization of wild type C57BL/6 (B6) mice: OT-1 splenocytes were harvested and CD8+ T cells were isolated as described above. 2×10^6 OT-1 T cells were adoptively transferred into 6- to 10-week old female B6 mice via intraperitoneal injection. The day following transfer, mice were immunized subcutaneously with 100 μg SIINFEKL peptide (SEQ ID NO:1) in PBS without adjuvant, intradermally with 100 μg plasmid encoding full length secreted chicken egg ovalbumin (pCI-neo-sOVA (psOVA), Addgene plasmid #25098, Cambridge, MA), intraperitoneally with 5×10^6 cfu of a Listeria monocytogenes vector encoding ovalbumin (Lm-OVA, gift of JD Sauer), or vehicle or corresponding wild-type Lm or DNA plasmid vector. TLR agonists were co-injected with the vaccine at the following concentrations: 20 μg/mouse Pam3CSK4, 100 μg/mouse Gardiquimod, 50 μg/mouse ODN 1826, or vehicle. Mice were euthanized at the times indicated. Spleens were collected, processed as described above, and T-cell populations analyzed by flow cytometry. Data collected on different days were normalized using rainbow beads (Spherotech, Lake Forest, IL; RFP-30-5A).

[2] = system: ovalbumin-expressing E.G7 cells; assay: Ovalbumin tumor treatment study: peptide immunization with or without TLR agonist; assay type: in vivo, mice; details: FT peptide relative to high-affinity OVA peptide
Description: OT-1 T cells were then adoptively transferred and the following day were immunized with SIINFEKL (SEQ ID NO:1, OVA) or FT peptide (SEQ ID NO:2) alone or with TLR1/2 or TLR7 agonist. Other groups were immunized with 100 μg anti-PD-1 antibody delivered the following day. […] This anti-tumor effect was not observed with TLR agonist treatment alone (FIG. 22). […] This was associated with a reduced PD-1 (but not LAG-3) expression on CD8+ TIL (FIG. 17C).
Ovalbumin tumor treatment studies: 10^6 ovalbumin-expressing E.G7 PD-L 1^high cells were injected subcutaneously into 6- to 10-week old female B6 mice. Ten to fifteen days post injection, when tumors were palpable and similarly sized (˜0.2 cm^3), 2×10^6 naïve OT-1 CD8+ T cells were adoptively transferred to each mouse as described above. The following day mice were immunized subcutaneously with 100 μg of an individual peptide (SIINFEKL (SEQ ID NO:1) or variant, LifeTein) in PBS, with or without TLR agonists as described above. In the group receiving PD-1 blocking antibody, 100 μg of antibody (clone G4 (52)) was injected intraperitoneally on the day following vaccination. Tumor volume was measured over time using calipers and calculated in cubic centimeters according to the following formula: (π/6)*(long axis)*(short axis)^2. Tumors obtained at necropsy were digested in media containing 1 mg/mL collagenase and 20 μg/mL DNAse I (Sigma, St. Louis, MO) for 1-2 hours at 37° C. and passed through a 100-μm screen to obtain a single-cell suspension. Tumor cells and tumor-infiltrating lymphocytes (TILs) were stained and analyzed by flow cytometry using the following panel: CD3-FITC (BD 555274), CD4-BUV395 (BD 563790), CD8-BUV805 (BD 564920), LAG-3-BV711 (BD 563179), PD1-PECF594 (BD 562523), PDL1-PECy7 (BD 558017), 41BB-PerCPeF710) (eBioscience 46-1371-82), CD45-BV510 (BD 563891) and Live/Dead Ghost dye 780 (Tonbo, San Diego, CA 13-0865-T100) or corresponding fluorescently labeled IgG controls.

Molecule: CCOCc1nc2c(N)nc3ccccc3c2n1CC(C)(C)O [R848, Resiquimod]
- 4-1BB [1]: =
- LAG3 [1]: =
- PD-1 [1]: −

Molecule: ODN1826
- PD-1 expression on OT-1 CD8+ T cells in vivo (OT-1 CD8+ T cells; OVA or FT peptide immunization with TLR ligand versus peptide alone, splenocytes up to 14 days, early after T-cell activation): significantly reduced
- 4-1BB [1]: =
- LAG3 [1]: =/−
- PD-1 [1]: −
- PD-1 expression on activated T cells ([1]; in words, SIINFEKL plus TLR agonist versus antigen alone, up to 4 days): significantly reduced

Molecule: SIINFEKL [SIINFEKL peptide]
- LAG-3 expression by vaccine type (OT-1 CD8+ T cells; one immunization, splenocytes after vaccination, Lm co-administered with peptide): significantly increased
- 4-1BB expression by vaccine type (OT-1 CD8+ T cells; one immunization, splenocytes after vaccination, Lm or DNA co-administered at the site of peptide immunization): strongest activation
- PD-1 expression by vaccine type (OT-1 CD8+ T cells; one immunization, splenocytes after vaccination, Lm or DNA co-administered with peptide versus peptide): significantly increased
- T-cell activation as measured by 4-1BB expression, by peptide affinity ([1]; OVA versus FT and LP peptides): greatest T-cell activation

Molecule: SIINTEKL [FT peptide]
- anti-tumor response of peptide immunization alone [2]: greater anti-tumor response
